Reference: patent US20250163067A1, “NUCLEOBASE-SUBSTITUTED PIPERIDINYL-PYRIDINES AND RELATED COMPOUNDS AND THEIR USE IN TREATING DISEASES AND CONDITIONS” (K36 Therapeutics, Inc., priority 2023, published 2025)

Target: recombinant human NSD2 (Homo sapiens (Human), UniProt O96028)
Test: NSD2 inhibitory activity, modified RBC HotSpot HMT Assay
Assay type: biochemical
Settings: recombinant human NSD2 (amino acids 2-end) 2 nM, chicken oligonucleosomes 0.05 mg/ml, 3H-SAM 1 μM, 1 hour at 30° C
Experimental: Exemplary compounds were tested for NSD2 inhibitory activity using a modified RBC HotSpot HMT Assay.
A reaction mixture was prepared by adding oligonucleosomes from Chicken (0.05 mg/ml) to freshly prepared reaction buffer containing 50 mM Tris-HCl (pH 8.5), 50 mM NaCl, 5 mM MgCl2, 0.01% Brij35, 1 mM DTT, and 1% DMSO followed by the addition of recombinant human NSD2, (amino acids 2-end) with N-terminal His tag (2 nM; GenBank Accession No. NM 001042424; MW=155.5 kDa; expressed in Sf9 insect cells) and gentle mixing. The test compounds were diluted in DMSO, added to the reaction mixture in nanoliter amounts by using Acoustic Technology (Echo 550, LabCyte Inc. Sunnyvale, CA) and incubated for 20 minutes at room temperature. The reaction was initiated by the addition of S-Adenosyl-L-[methyl-^3H] methionine (^3H-SAM; 1 μM), and the mixture was incubated for 1 hour at 30° C. The reaction mixture was delivered to filter paper and the methylated substrate was quantified by scintillation counting. Data analysis was performed using Excel and GraphPad Prism software for IC50 curve fits. For additional information on the histone methyltransferase assay, see, for example, Horiuchi K Y, et al., “Assay Development for Histone Methyltransferases,” Assay Drug Dev Technol. 2013 May; 11 (4): 227-36.

recombinant human NSD2, sequence (O96028 2-1365 limits assumed): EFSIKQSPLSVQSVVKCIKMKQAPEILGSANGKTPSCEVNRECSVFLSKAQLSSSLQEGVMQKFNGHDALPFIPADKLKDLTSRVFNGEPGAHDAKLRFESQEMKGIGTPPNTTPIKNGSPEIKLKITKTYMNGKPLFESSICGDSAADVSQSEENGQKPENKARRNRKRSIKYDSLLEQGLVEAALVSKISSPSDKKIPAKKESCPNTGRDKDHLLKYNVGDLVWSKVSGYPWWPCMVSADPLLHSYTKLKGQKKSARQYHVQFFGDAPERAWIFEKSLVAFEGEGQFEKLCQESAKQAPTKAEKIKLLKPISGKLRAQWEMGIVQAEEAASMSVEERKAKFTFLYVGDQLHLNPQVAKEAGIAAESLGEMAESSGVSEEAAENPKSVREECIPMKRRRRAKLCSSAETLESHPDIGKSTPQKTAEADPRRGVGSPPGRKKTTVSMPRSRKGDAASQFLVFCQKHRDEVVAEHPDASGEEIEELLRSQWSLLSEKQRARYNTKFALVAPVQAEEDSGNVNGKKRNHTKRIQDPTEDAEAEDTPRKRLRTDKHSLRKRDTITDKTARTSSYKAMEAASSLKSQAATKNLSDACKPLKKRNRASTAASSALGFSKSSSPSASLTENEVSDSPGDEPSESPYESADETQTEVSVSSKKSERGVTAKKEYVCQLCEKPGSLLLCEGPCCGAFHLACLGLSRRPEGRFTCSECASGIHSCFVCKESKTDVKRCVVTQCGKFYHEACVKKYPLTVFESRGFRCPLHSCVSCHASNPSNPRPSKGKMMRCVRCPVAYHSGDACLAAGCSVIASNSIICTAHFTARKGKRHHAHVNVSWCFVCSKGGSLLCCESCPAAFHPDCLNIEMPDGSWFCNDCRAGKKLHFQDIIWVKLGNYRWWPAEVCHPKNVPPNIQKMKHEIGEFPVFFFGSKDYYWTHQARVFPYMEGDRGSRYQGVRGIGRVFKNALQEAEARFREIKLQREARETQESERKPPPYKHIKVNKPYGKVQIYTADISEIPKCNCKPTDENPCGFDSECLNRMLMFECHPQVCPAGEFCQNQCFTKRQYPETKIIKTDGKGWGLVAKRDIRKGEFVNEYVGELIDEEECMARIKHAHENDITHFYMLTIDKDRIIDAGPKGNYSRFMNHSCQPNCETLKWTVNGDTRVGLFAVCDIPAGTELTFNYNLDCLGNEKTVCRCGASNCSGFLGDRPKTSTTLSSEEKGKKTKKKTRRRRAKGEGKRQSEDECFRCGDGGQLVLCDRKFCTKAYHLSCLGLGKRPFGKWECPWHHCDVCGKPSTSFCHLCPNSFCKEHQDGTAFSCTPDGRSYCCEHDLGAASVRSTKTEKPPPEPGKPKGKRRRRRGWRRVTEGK

SMILES | IC50
COc1cc(F)c(-c2cc(Cn3cnc4ncncc43)c(N3CCC[C@](N)([C@H](O)C(F)F)C3)cn2)cc1F [IV-2] | > 1 µM
COc1cc(F)c(-c2cc(CN3CCC(=O)NC3=O)c(N3CCC[C@](N)([C@H](O)C(F)F)C3)cn2)cc1F [IV-19] | > 1 µM
COc1cc(F)c(-c2cc(CN3NCc4cnc(N)nc43)c(N3CCC[C@](N)([C@H](O)C(F)F)C3)cn2)cc1F [IV-24] | > 1 µM
COc1cc(F)c(-c2cc(Cn3ccc4ncccc43)c(N3CCC[C@](N)([C@H](O)C(F)F)C3)cn2)cc1F [IV-14] | > 1 µM
COc1cc(F)c(-c2cc(Cc3cnc4c(N)nccn34)c(N3CCC[C@](N)([C@H](O)C(F)F)C3)cn2)cc1F [Compound I-4, (S)-1-((R)-3-AMINO-1-(4-((8-AMINOIMIDAZO [1,2-A]PYRAZIN-3-YL)METHYL)-6-(2,5-DIFLUORO-4-METHOXYPHENYL)PYRIDIN-3-YL)PIPERIDIN-3-YL)-2,2-DIFLUOROETHAN-1-OL] | ≤ 1 µM
COc1cc(F)c(-c2cc(CN3Cc4nccnc4C3)c(N3CCC[C@](N)([C@H](O)C(F)F)C3)cn2)cc1F [IV-11] | > 1 µM
COc1cc(F)c(-c2cc(Cn3cnnc3)c(N3CCC[C@](N)([C@H](O)C(F)F)C3)cn2)cc1F [IV-30] | > 1 µM
COc1cc(F)c(-c2cc(Cn3cnc4cnncc43)c(N3CCC[C@](N)([C@H](O)C(F)F)C3)cn2)cc1F [IV-8] | > 1 µM
COc1cc(F)c(-c2cc(CNc3cc4[nH]ccc4cn3)c(N3CCC[C@](N)([C@H](O)C(F)F)C3)cn2)cc1F [IV-28] | > 1 µM
COc1cc(F)c(-c2cc(Cn3ncc4cncnc43)c(N3CCC[C@](N)([C@H](O)C(F)F)C3)cn2)cc1F [IV-10] | > 1 µM
COc1cc(F)c(-c2cc(Cn3ccc4nccnc43)c(N3CCC[C@](N)([C@H](O)C(F)F)C3)cn2)cc1F [IV-13] | > 1 µM
COc1cc(F)c(-c2cc(Cn3cnc4c(O)nc(N)nc43)c(N3CCC[C@](N)([C@H](O)C(F)F)C3)cn2)cc1F [IV-17] | > 1 µM
COc1cc(F)c(-c2cc(Cn3ccc4ncncc43)c(N3CCC[C@](N)([C@H](O)C(F)F)C3)cn2)cc1F [IV-5] | ≤ 1 µM
COc1cc(F)c(-c2cc(Cn3ccnn3)c(N3CCC[C@](N)([C@H](O)C(F)F)C3)cn2)cc1F [IV-21] | > 1 µM
COc1cc(F)c(-c2cc(Cn3cnc4nccnc43)c(N3CCC[C@](N)([C@H](O)C(F)F)C3)cn2)cc1F [IV-7] | > 1 µM
COc1cc(F)c(-c2cc(Cn3ncc4nccnc43)c(N3CCC[C@](N)([C@H](O)C(F)F)C3)cn2)cc1F [IV-12] | > 1 µM
COc1cc(F)c(-c2cc(CN3CCNC3=O)c(N3CCC[C@](N)([C@H](O)C(F)F)C3)cn2)cc1F [IV-22] | > 1 µM
COc1cc(F)c(-c2cc(Cn3ccnc3)c(N3CCC[C@](N)([C@H](O)C(F)F)C3)cn2)cc1F [IV-20] | > 1 µM
COc1cc(F)c(-c2cc(Cn3ncc4ncncc43)c(N3CCC[C@](N)([C@H](O)C(F)F)C3)cn2)cc1F [IV-9] | > 1 µM
COc1cc(F)c(-c2cc(Cn3ccc4cncnc43)c(N3CCC[C@](N)([C@H](O)C(F)F)C3)cn2)cc1F [IV-4] | > 1 µM
COc1cc(F)c(-c2cc(CN3CCc4cncnc43)c(N3CCC[C@](N)([C@H](O)C(F)F)C3)cn2)cc1F [IV-3] | > 1 µM
COc1cc(F)c(-c2cc(Cn3cnnn3)c(N3CCC[C@](N)([C@H](O)C(F)F)C3)cn2)cc1F [IV-29] | > 1 µM
COc1cc(F)c(-c2cc(Cn3ccc(N)nc3=O)c(N3CCC[C@](N)([C@H](O)C(F)F)C3)cn2)cc1F [IV-18] | > 1 µM
COc1cc(F)c(-c2cc(Cn3ccc4cnccc43)c(N3CCC[C@](N)([C@H](O)C(F)F)C3)cn2)cc1F [IV-23] | > 1 µM
COc1cc(F)c(-c2cc(Cn3ncc4cnccc43)c(N3CCC[C@](N)([C@H](O)C(F)F)C3)cn2)cc1F [IV-15] | > 1 µM
COc1cc(F)c(-c2cc(Cn3cnc4ccccc43)c(N3CCC[C@](N)([C@H](O)C(F)F)C3)cn2)cc1F [IV-6] | > 1 µM
COc1cc(F)c(-c2cc(Cn3cnc4cncnc43)c(N3CCC[C@](N)([C@H](O)C(F)F)C3)cn2)cc1F [IV-1] | ≤ 1 µM
